# Read-outs that look alike come from different tables or passages of the source.
# Assays:
# [1] = system: C3H/Hen recipients of T cell depleted BM and high dose CY
# Method: Donor (Balb/c) and 3rd party (C57BL/6) skin grafts were transplanted to the mixed chimeric recipients as described above [i.e. to those mice which were previously transplanted with mega dose (25×10^6) T cell depleted BM and were treated with high dose CY] and to the recipient mice that were inoculated with a regular (5×10^6) T cell depleted BM cell dose and were treated with high dose CY.
# Tolerance induction was measured by transplantation of donor (Balb/c) and 3rd party (C57BL/6) skin grafts to the mixed chimeric recipients that were transplanted with mega dose (25×10^6) T cell depleted BM and were treated with high dose CY (as described above), in comparison to the recipients that were inoculated with a regular (5×10^6) T cell depleted BM cell dose (as described above).
# [2] = system: allogeneic recipients (C3H/Hen) transplanted with Balb/c-Nude BM cells
# Method: (§1) Low (5×10^6) and high dose (25×10^6) Balb/c-Nude BM cells (providing a source of BM depleted of T cells) were transplanted into allogeneic recipients (C3H/Hen) on day 0 following in-vivo T cell debulking (TCD) with anti-CD4 (clone GK1.5) and anti-CD8 (clone 53.6.72) antibodies (300 μg each; Bio X Cell, NH, USA) delivered on day −6, and exposure to 2.0 Gy total body irradiation (TBI) on day −1. High dose Cyclophosphamide (CY, 100 mg/kg, Baxter Oncology, Germany) was administered on days +3 and +4 post transplant and donor type chimerism was evaluated 35 and 95 days post transplant using fluorescein anti-host and donor H-2 antibodies (e.g. FlTC labeled anti-H-2D^d antibody specific for donor type cells and PE labeled anti-H-2K^k antibody specific for host type cells).
# Recipient mice (C3H/Hen) were treated with a conditioning protocol prior to transplantation of a T cell depleted bone marrow transplant. Specifically, mice were in-vivo treated with T cell debulking (TCD) using anti-CD4 and anti-CD8 antibodies delivered on day −6 and by exposure to 2.0 Gy total body irradiation (TBI) on day −1. Next, low (5×10^6) or high dose (25×10^6) Balb/c-Nude BM cells (providing a source of BM depleted of T cells, as Nude mice have miniscule numbers of mature T cells) were transplanted into allogeneic recipients (C3H/Hen) on day 0. High dose cyclophosphamide (CY, 100 mg/kg) was administered on days +3 and +4 post transplant. Evaluation of bone marrow cell engraftment was evaluated by donor type chimerism at 35 and 95 days post transplant.
# as §1, with “High” for “Low (5×10^6) and high”, “different doses of irradiation ranging from 1 to 3.5” for “2.0”, “TBI” for “total body irradiation (TBI)”, “30” for “35 and 95”
# High dose Cyclophosphamide (CY) was administered on days +3 and +4 post transplant and donor type chimerism was evaluated at 30 days post transplant.
# as §1, with “High dose” for “Low (5×10^6) and high dose”, “−1. Different doses of” for “−1. High dose”, “mg/kg, 125 mg/kg or 150 mg/kg,” for “mg/kg,”, “Germany) were” for “Germany) was”, “evaluated 30” for “evaluated 35 and 95”
# [3] = 1.0 Gy TBI, 25×10^6 BM, CY 100 mg/kg days +3 and +4, 30 days post transplant
# [4] = 2 Gy TBI, 25×10^6 BM, CY 100 mg/kg days +3 and +4, 30 days post transplant
# [5] = 2.5, 3 or 3.5 Gy TBI, 25×10^6 BM, CY 100 mg/kg days +3 and +4, 30 days post transplant
smiles,measurement,setting,value
"O.O=P1(N(CCCl)CCCl)NCCCO1 (stereo not drawn) [CY, 2-[bis(2-chloroethyl)amino]tetrahydro-2H-1,3,2-oxazaphosphorine 2-oxide monohydrate]",skin graft outcome,[1]; 5×10^6 T cell depleted BM cells and CY,rejected both the donor and 3rd party skin grafts
same,chimeric mice that accepted the donor graft and rejected the 3rd party skin grafts,[1]; 25×10^6 T cell depleted BM + high dose CY days +3 and +4,three out of 4
same,effect of increasing CY dose on chimerism,"[2]; 125 mg/kg or 150 mg/kg versus 100 mg/kg, 25×10^6 BM, 2 Gy TBI, 30 days post transplant",did not provide a significant enhancement of chimerism
same,donor type chimerism range,[2]; [3],14.5-58%
same,percentage of chimeric mice,[2]; [3],83%
same,donor type chimerism range,[2]; [4],56-85%
same,percentage of mice exhibiting donor type chimerism,[2]; [4],87%
same,chimeric recipient mice,[2]; [5],6/6
same,donor type chimerism range,[2]; [5],58-83%
same,mixed chimerism at long term follow-up,"[2]; 5×10^6 T cell depleted BM + CY, 180 and 225 days post transplant",did not exhibit mixed chimerism
same,effect of CD8+ cell depletion of the BM preparation on level of chimerism,"[2]; 25×10^6 CD8 depleted vs non-depleted Balb/c-Nude BM, CY 100 mg/kg days +3 and +4, 2.0 Gy TBI, 30 days post transplant",did not have any adverse impact
same,chimerism at long term follow-up,"[2]; 25×10^6 T cell depleted BM + high dose CY, 180 and 225 days post transplant",stable and durable
same,mice in which durable mix chimerism was achieved,"[2]; 25×10^6 T cell depleted BM, CY 100 mg/kg days +3 and +4, TCD day −6, 2.0 Gy TBI day −1, day 35 and day 95",4 out of 7
same,average donor type chimerism,"[2]; CY 100 mg/kg days +3 and +4, 25×10^6 BM, 2 Gy TBI, 30 days post transplant",57.5±25.8
same,average donor type chimerism,"[2]; CY 125 mg/kg days +3 and +4, 25×10^6 BM, 2 Gy TBI, 30 days post transplant",66.5±20.6
same,average donor type chimerism,"[2]; CY 150 mg/kg days +3 and +4, 25×10^6 BM, 2 Gy TBI, 30 days post transplant",67.4±27.4
same,mice expressing donor type chimerism,"[2]; control mice: TCD, 2 Gy TBI and optionally CY, no BM, day 35 and day 95",none
same,mice expressing donor type chimerism,"[2]; regular dose 5×10^6 T cell depleted BM, in the presence or absence of cyclophosphamide, TCD, 2 Gy TBI, day 35 and day 95",none

# Source: patent US11497776B2, “Combination therapy for a stable and long term engraftment” (Yeda Research and Development Co. Ltd., priority 2011, dated 2022)
